Results: article PMC2836812 (Chemical biology & drug design, 2010)
Where two headings read alike, the source gives them in different places.

Key:
[1] = molecular target: T1, ScPFTase (protein farnesyltransferase), β-subunit (Saccharomyces cerevisiae, UniProt P22007); experiment: continuous fluorescence assay with N-dansyl-GCVIA; assay type: biochemical
T1 sequence (P22007 1-431): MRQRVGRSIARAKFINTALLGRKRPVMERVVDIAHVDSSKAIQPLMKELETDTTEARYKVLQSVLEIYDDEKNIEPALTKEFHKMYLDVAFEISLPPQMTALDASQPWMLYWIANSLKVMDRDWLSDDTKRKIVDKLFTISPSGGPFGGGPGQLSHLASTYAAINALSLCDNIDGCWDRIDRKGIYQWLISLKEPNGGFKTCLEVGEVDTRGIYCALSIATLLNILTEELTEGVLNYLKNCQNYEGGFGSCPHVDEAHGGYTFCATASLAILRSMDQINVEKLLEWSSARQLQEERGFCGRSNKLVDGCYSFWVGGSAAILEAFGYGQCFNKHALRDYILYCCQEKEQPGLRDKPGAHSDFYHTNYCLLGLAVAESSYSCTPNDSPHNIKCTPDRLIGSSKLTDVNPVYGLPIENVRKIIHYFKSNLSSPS
T1 sequence (P29703 1-316 partner): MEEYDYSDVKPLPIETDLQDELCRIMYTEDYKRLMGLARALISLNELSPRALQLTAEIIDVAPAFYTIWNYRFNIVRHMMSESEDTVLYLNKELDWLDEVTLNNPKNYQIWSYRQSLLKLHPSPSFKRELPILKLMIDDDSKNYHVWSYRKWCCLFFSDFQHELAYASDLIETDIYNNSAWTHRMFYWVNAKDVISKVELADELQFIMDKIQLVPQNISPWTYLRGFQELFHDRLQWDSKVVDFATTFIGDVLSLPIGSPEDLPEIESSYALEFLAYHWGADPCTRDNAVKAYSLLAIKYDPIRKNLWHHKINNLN

[2] = molecular target: T1, ScPFTase (protein farnesyltransferase), β-subunit; experiment: continuous fluorescence assay with N-dansyl-GCVIA; assay type: biochemical; remark: listed apart in the source

C/C(=C\COP(=O)(O)OP(=O)(O)O)CCCC(C)COC(=O)C(=[N+]=[N-])C(F)(F)F (racemic) [compound 4, (E)-8-O-(2-Diazo-3,3,3-trifluoropropanoyloxy)-3,7-dimethyl-2-octenyl-1-diphosphate]
IC50 [1]: 30 µM

C/C(=C\COP(=O)(O)OP(=O)(O)O)CC/C=C(\C)CNC(=O)C(=[N+]=[N-])C(F)(F)F [compound 3, (E,E)-8-N-(2-Diazo-3,3,3-trifluoropropionamido)-3,7-dimethyl-2,6-octadienyl-1-diphosphate]
IC50 [2]: 50 µM
